Measurements as given in patent US12636368B2, “Ionizable lipids for nucleic acid delivery” (Global Life Sciences Solutions Canada ULC, priority 2019, dated 2026).

How the values were obtained:
[1] = test system: isolated primary human T cells; test: CD19 CAR expression in primary human T cells by mRNA-LNPs; format: cell-based; conditions: FIG. 11; CT10, N/P 8, 48 h
Protocol: MRNA containing IL with CT10 composition at N/P 8 was assayed after in vitro exposure. The CAR vector pcDNA3.1 anti-CD19-h(BB Lambda)-EGFP-2nd-CAR (T7 Mut) 7661 bp was purchased from Creative BioLabs, NY, USA.
T cells were isolated from whole blood using a negative isolation procedure and T cell activation, and expansion was carried out by triple activation in ImmunoCult™ Human T Cell Expansion Media as described supra.

[2] = LNP size and PDI by dynamic light scattering; format: physicochemical
Outline: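 Hydrodynamic diameter measured by DLS with a 633 nm He/Ne laser in backscatter mode (173°), averaging 10 runs of two cycles per sample. Size reported as Z-average (harmonic intensity-averaged diameter), with polydispersity given as PDI.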

C56BL/6 mice = test: hEPO expression in mice after i.v. EPO mRNA LNPs; format: in vivo; conditions: for hEPO protein level compared with MC3: FIG. 9, 5-moU EPO mRNA, LM02, N/P 6, 0.5 mg/Kg, 6 h; for protein expression in vivo compared with MC3: summary, Table 7 and Figures
Protocol: C56BL/6 mice were administered i.v doses of 0.5, 1 or 3 mg/Kg of recombinant human EPO-encoded mRNA LNPs containing ionizable lipids MC3, PNI 76, PNI 121 and PNI 127 using the LM02 composition at N/P 6; hEPO protein was measured using Quantikine® IVD® ELISA Human Erythropoietin Immunoassay protocol. Results for the 0.5 mg/Kg dosage are shown in the scatter plot of FIG. 7. Results for the 1 and 3 mg/Kg doses are shown in FIG. 8 as scatter plots of hEPO expression levels at 6 h (left) and 24 h (right).
In another study, 5-moU EPO mRNA encapsulated in LM02 LNP at an N/P ratio of 6 and a dose of 0.5 mg/Kg comprising a variety of […] ionizable lipids (PNI 336, PNI 534, PNI 535, PNI 342, PNI 321, PNI 532, PNI 538, PNI 541, PNI 325, PNI 328, PNI 329, PNI 539, PNI 540, PNI 127); along with MC3 as a control, were administered. hEPO protein was measured using ProteinSimple® Ella platform, and the rhEPO microfluidic cartridges provided by the manufacturer.
Blood from mice treated with hEPO mRNA LNP was analyzed using an automated ELISA platform “ELLA”, using Simplex™ antibody panel cartridges. Human-specific EPO and mouse-specific IL-5, IL-6, TNF-α, and IFN-γ were measured (reagents from Bio-techne). Briefly, 50 μL of sample reagent (diluted biological sample, quality control, or calibration point sample) were aliquoted into each sample inlet, and 1 mL of wash buffer was added into corresponding inlets on the cartridge. All immunoassay operations (including prime system, flow samples and split them into channels, sample incubation, wash, rehydrate and flow secondary antibody, wash, rehydrate and flow streptavidin dye conjugate, incubate, wash, scan) were processed automatically. Raw signal levels (relative fluorescence units, RFUs), mean signal values, standard deviation, and coefficient of variance (CV) for each glass nanoReactor (GNR) value are provided. RFU values are automatically backfit by the ELLA to produce an analyte concentration per analyte/sample using the manufacturer given calibration methodology.
Reagents were acquired from Quantikine, Minneapolis, MN. The assay was performed as directed on the Quantikine® IVD® ELISA Human Erythropoietin Immunoassay protocol REF DEP00 Package Insert. Briefly; Sera samples of 6 h, and/or 24 h post intravenous administration of 0.5, 1 or 3 mg/kg dose of EPO-encoded mRNA were analyzed for EPO expression analysis, and expressed as mIU/mL. To an EPO antibody pre-coated 96-well microplate, provided by the manufacturer, standards, appropriately diluted sera, and the Horseradish peroxidase (HRP)-conjugated rabbit anti-EPO polyclonal antibody and TMB (Tetramethylbenzidine) as the substrate were added and incubated for 20 minutes. Stop solution (Sulfuric Acid) was added to the wells and the plate was read at 450 nm and the concentration of EPO was calculated. The amount of colour generated is directly proportional to the amount of the conjugate bound to EPO antibody, which in turn is directly proportional to the amount of EPO in the specimen or standard. A standard curve was generated by plotting absorbance versus concentration of provided standards. Quantikine® Human Serum Controls (CEP 01, CEP 03) were used for internal controls.

primary human T cells = test: EPO ELISA after EPO mRNA LNP treatment of primary human T cells; format: cell-based
Protocol: Reagents were acquired from Quantikine, Minneapolis, MN. The assay was performed as directed on the Quantikine® IVD® ELISA Human Erythropoietin Immunoassay protocol. REF DEP00 Package Insert. Briefly; primary human T cells were isolated from fresh whole blood using a negative selection protocol and activated using a triple activator. Seven days post-activation, T cells were dosed with mRNA LNPs encoding EPO at 2 pg mRNA per 500,000 cells and N/P 10. Quantikine® Human Serum Controls were used. After 48 hours of treatment with mRNA LNPs the T cells were harvested and lysed for cytosolic EPO and media supernatant was sampled for secreted EPO. Table 5 includes the data of FIG. 6 as well as the fold increase of EPO for PNI 76 and 121 versus MC3.

[3] = Table 6, GFP-encoded LNPs, CT10, N/P 8
[4] = Table 7, EPO mRNA LNPs, LM02, N/P 6

| Compound | CD19 CAR expression compared with PBS [1] | Diameter (Z. ave, nm) [2, 3] [nm] | Polydispersity Index (PDI) [2, 3] | Diameter (Z. ave, nm) [2, 4] [nm] | Polydispersity Index (PDI) [2, 4] | hEPO protein level compared with MC3 (C56BL/6 mice) | protein expression in vivo compared with MC3 (C56BL/6 mice) | EPO expression compared with MC3 (primary human T cells; FIG. 6, N/P 10, 48 hours) | EPO Fold Change Relative to MC3 (primary human T cells; Table 5) | EPO concentration (mIU/mL) (primary human T cells; Table 5, EPO mRNA LNPs, 2 pg mRNA per 500,000 cells, N/P 10, 48 hours) |
| --- | --- | --- | --- | --- | --- | --- | --- | --- | --- | --- |
| CCCCC/C=C\C/C=C\CCCCCCCC(=O)O[C@@H]1[C@@H](OC(=O)CCCCCCC/C=C\C/C=C\CCCCC)CO[C@@H]1COC(=O)C1(C)CCN(C)C1 (mixture of isomers) [PNI 329] | greater than PBS | 74.1 | 0.11 | 70.9 | 0.04 | compare well to MC3 | equivalent to MC3 |  |  |  |
| CCCCC/C=C\C/C=C\CCCCCCCC(=O)O[C@@H]1[C@@H](OC(=O)CCCCCCC/C=C\C/C=C\CCCCC)CO[C@@H]1COC(=O)CCCN1CCCC1 (racemic) [PNI 539] |  |  |  | 86.9 | 0.13 | compare well to MC3 |  |  |  |  |
| CCCCC/C=C\C/C=C\CCCCCCCC(=O)O[C@@H]1[C@@H](OC(=O)CCCCCCC/C=C\C/C=C\CCCCC)CO[C@@H]1COC(=O)CCCN(C)C (racemic) [PNI 121] |  | 100.7 | 0.16 | 93.5 | 0.10 |  | equivalent to MC3 | higher than those containing MC3 | 1.86 | 1009.0 |
| CCCCC/C=C\C/C=C\CCCCCCCC(=O)O[C@@H]1[C@@H](OC(=O)CCCCCCC/C=C\C/C=C\CCCCC)CO[C@@H]1COC(=O)C1CCN(C)C1 (mixture of isomers) [PNI 328] | greater than PBS | 92.6 | 0.16 | 66.9 | 0.02 | compare well to MC3 | equivalent to MC3 |  |  |  |
